Literature values, collected in patent publication US6191117A, “Methods of producing weight loss and treatment of obesity” (priority 2000, dated 2001).
Entries after “also recorded” stand apart in the source; their conditions may differ. Like-named read-outs stand apart in the source and are kept apart here.

Tests used:
lateral hypothalamus [1] = conditions: injection into lateral hypothalamus
[2] = test system: strychnine-insensitive glycine-binding site
[3] = test system: NMDA receptor glycine site
lateral hypothalamus [4] = conditions: rats previously given intrahypothalamic injections
seizure patients = conditions: for patients with weight decrease: adjunctive therapy, control 3%
young healthy adults = conditions: acute doses and 2- and 4-week test periods
carbonic anhydrase CA-IV = conditions: compared with acetozolamide
carbonic anhydrase CA-II = conditions: compared with acetozolamide
cerebral GABA = conditions: within three hours of oral administration
[5] = not given; remark: listed apart in the source
NMDA receptors [6] = conditions: in vivo
NMDA receptors [7] = test system: NMDA receptors
[8] = test system: PFH (perifornical hypothalamus)
[9] = test system: PVN (paraventricular nucleus)
[10] = test system: NMDA receptor glycine site; conditions: bilateral LH injection
[11] = another study, epileptic patients
[12] = clinical trials on seizure patients
[13] = injection into LH bilaterally for 8 days

Cc1onc(O)c1CC(N)C(=O)O (racemic) [AMPA, D,L-α-amino-3-hydroxy-5-methyl-isoxazole proprionic acid]
eating response on LH injection (lateral hypothalamus [1]): elicit a strong dose-dependent eating response; also recorded: elicited eating in a dose-dependent fashion; also recorded: trigger intense eating; also recorded: quantitatively similar eating responses

N[C@H](CO)C(=O)O [D-serine]
7CK induced feeding ([2]; rat, in vivo): dose-dependently antagonized 7CK induced feeding

NCC(=O)O [glycine]
block by 7-CK of NMDA-elicited eating, after LH pretreatment with glycine ([3]; LH pretreatment): reversed this block

C=C(C)[C@H]1CN[C@H](C(=O)O)[C@H]1CC(=O)O [KA, Kainic acid]
feeding and drinking (lateral hypothalamus [4]): impaired | eating response on LH injection (lateral hypothalamus [1]): elicit a strong dose-dependent eating response; also recorded: elicited eating in a dose-dependent fashion; also recorded: trigger intense eating | eating response on LH injection (lateral hypothalamus [1]; listed as kainic acid): quantitatively similar eating responses

NC(=O)N1c2ccccc2C=Cc2ccccc21 [carbamazepine]
weight gain as monotherapy (seizure patients): associated with weight gain

CC1(C)O[C@@H]2[C@@H](CO[C@@]3(COS(N)(=O)=O)OC(C)(C)O[C@@H]23)O1 [TPM, 2,3:4,5-DI-O-isolpropylidene-B-D-fructopyranose sulfamate]
action on sodium channel (sodium channel): voltage-sensitive sodium channel blocking action | attention and word fluency (young healthy adults): statistically significant declines on measures of attention and word fluency | inhibition of CA-IV (carbonic anhydrase CA-IV): weaker than that of acetozolamide | inhibition of CA-II (carbonic anhydrase CA-II): weaker than that of acetozolamide | dose dependence of common adverse events (patients with seizures; 200 to 400 mg/day): did not appear to be dose-related | discontinuation due to adverse events (patients with seizures; 200 to 400 mg/day adjunctive therapy): 11% | common adverse events, controlled trials (patients with seizures; 200 to 400 mg/day, adults): somnolence, dizziness, ataxia, speech disorders and related speech problems, psychomotor slowing, abnormal vision, difficulty with memory, paresthesia and diplopia | most common dose-related adverse events (patients with seizures; 200 to 1,000 mg/day): fatigue, nervousness, difficulty with concentration or attention, confusion, depression, anorexia, language problems, anxiety, mood problems, and weight decrease | course of adverse events (patients with seizures; 200 to 1,000 mg/day, rapid dose titration of 200 mg/day): abated after 4 months of treatment | renal calculi incidence relative to similar untreated population (patients with seizures; about, expected in a similar, untreated population): 2-4 times | nonspecific CNS effects occasionally observed (patients with seizures; add-on therapy): dizziness or imbalance, confusion, memory problems, and exacerbation of mood disturbances (i.e., irritability and depression) | renal calculi (kidney stones) incidence (patients with seizures; adults): 1.5% | severity of somnolence and fatigue (patients with seizures; clinical trials, early in therapy): generally mild to moderate | dose dependence of fatigue incidence (patients with seizures; dosages above 400 mg/day): increases at dosages above 400 mg/day | central nervous system adverse events (patients with seizures; human, in vivo): psychomotor slowing, difficulty with concentration, and speech or language problems, in particular, word-finding difficulty and somnolence and/or fatigue | correlation of plasma concentrations with adverse events (patients with seizures; human, in vivo): not correlated with the occurrence of adverse events | dose dependence of somnolence incidence (patients with seizures; human, in vivo): does not appear to be dose-related | adverse events associated with discontinuing therapy (patients with seizures; increased at dosages above 400 mg/day): somnolence, dizziness, anxiety, difficulty with concentration or attention, fatigue, and paresthesia | post-marketing adverse experiences (patients with seizures; post-marketing data): hepatic failure, hepatitis, pancreatitis, and renal tubular acidosis | action on GABA (GABA receptor): potentiation of the effects of GABA | carbonic anhydrase inhibition (carbonic anhydrase): weak carbonic anhydrase inhibitor | effect on urinary citrate excretion and urinary pH (carbonic anhydrase): reducing urinary citrate excretion and by increasing urinary pH | activity at the kainate/AMPA receptor (kainate/AMPA receptor): antagonizing the kainate/AMPA | activity at the NMDA receptor (NMDA receptor): no effect on the activity of N-methyl-D-aspartate (NMDA) | patients with weight decrease (seizure patients; 200-400 mg/day): 9% | patients with weight decrease (seizure patients; 600-1,000 mg/day): 13% | weight loss with valproate or valproate plus carbamazepine co-treatment (seizure patients; also treated with valproate, or valproate with carbamazepine): tended to be higher | amount of weight increase (seizure patients; another study, 2/12 patients): 12-25 pounds | amount of weight loss (seizure patients; another study, 5/12 patients): 12-42 pounds | patients with weight increase (seizure patients; [11]): 2/12 | patients with weight loss (seizure patients; [11]): 5/12 | average decline from baseline weight (seizure patients; [12]): 2-8% | average weight loss (seizure patients; [12]): 2 to 8 kg | report of anorexia in patients with weight loss (seizure patients; human, in vivo): more likely to report anorexia or loss of appetite | time to peak of weight loss (seizure patients; human, in vivo): 12-15 months | body weight after prolonged therapy (seizure patients; prolonged therapy): gradually returning toward pre-topiramate levels | patients with weight loss, long-term study (seizure patients; treated for up to 2.2 years): 26% | brain levels of cerebral GABA (cerebral GABA): acutely increase brain levels of cerebral GABA | bound to human plasma proteins (human plasma proteins; 1-250 μg/ml): 13-17% | plasma protein binding (human plasma proteins; concentration not given): approximately 15% | time to peak (TTP) plasma concentrations (400 mg dose): about 2 hours | dose recovered in urine (100-mg dose): 81-95% | linearity of pharmacokinetics (200 to 800 mg/day): linear with dose proportional increases in plasma concentration | route of elimination (TPM and its metabolites): predominantly renal | increase of plasma concentrations (hepatic impairment): 29% | clearance in hepatically impaired subjects (hepatically impaired subjects): may be decreased | extent of metabolism (in vivo): not extensively metabolized | metabolites identified in humans (in vivo): Six metabolites | renal tubular reabsorption (in vivo): evidence of renal tubular reabsorption | routes of metabolite formation (in vivo): hydroxylation, hydrolysis, and glucuronidation | plasma levels in moderate or severe renal impairment (moderate or severe renal impairment): plasma levels are increased | reduction of clearance (moderate renal impairment (creatinine clearance 30-69 mL/min/1.73 m^2) vs normal): 42% | eliminated unchanged in the urine (of an administered dose): approximately 70% | absorption (oral): rapid; also recorded: nearly complete | elimination half-life (patients with normal renal function): 20 to 30 h | dose excreted as unchanged TPM (predominantly renal elimination): 50-80% | reduction of clearance (severe renal impairment (creatinine clearance <30 mL/min/1.73 m^2) vs normal): 54% | mean plasma concentration half-life (single or multiple doses): 21 h | relative bioavailability, effect of food (tablet): not affected by food

Nc1nnc(-c2cccc(Cl)c2Cl)c(N)n1 [LTG]
action on sodium channel (sodium channel): blocking the sodium channel | anorexia and nausea incidence ([5]; 100 mg and 200 mg, adjunctive therapy and monotherapy): 6-15% | effect on body weight ([5]; 12 months or up to 144 weeks): no significant effect on body weight

N[C@H](CCCP(=O)(O)O)C(=O)O [D-AP5]
eating responses elicited by AMPA (NMDA receptors [6]): without affecting | eating responses elicited by kainic acid (NMDA receptors [6]): without affecting | reduction of the 10-gram eating response elicited by NMDA (NMDA receptors [6]): 72-90% | suppression of deprivation-induced eating responses (NMDA receptors [7]; in vivo): ≤ 61% | suppression of nocturnal eating (NMDA receptors [7]; in vivo): ≤ 40% | body weight loss (NMDA receptors [7]; [13]): up to 13 grams/day | reduction in daily food intake (NMDA receptors [7]; [13]): 65%

NCCc1ccc(O)c(O)c1 [dopamine]
effect on eating in PFH [8]: feeding-suppressive effects

NCCCC(=O)O [γ-aminobutyric acid]
effect on eating in PVN [9]: feeding-stimulatory effects

N[C@@H](CCC(=O)O)C(=O)O [glutamate]
effect on eating in PFH [8]: relatively ineffective | autonomic and endocrine effects (PFH injection) ([8]; PFH injections): can produce autonomic and endocrine effects | eating response on LH injection (lateral hypothalamus [1]): elicit a strong dose-dependent eating response; also recorded: elicited eating in satiated rats | effect on eating in PVN [9]: relatively ineffective | autonomic and endocrine effects (PVN injection) ([9]; PVN injections): can produce autonomic and endocrine effects

neuropeptide Y
effect on eating in PFH [8]: feeding-stimulatory effects

NC[C@H](O)c1ccc(O)c(O)c1 [norepinephrine]
effect on eating in PVN [9]: feeding-stimulatory effects

O=C(O)c1cc(O)c2ccc(Cl)cc2n1 [7-CK, 7-chlorokynurenic acid]
food intake ([2]; into intracerebral ventricles or paraventricular nucleus): dose-dependently increased food intake | AMPA-elicited eating ([3]; 7-CK 0.1 nmol): suppressed feeding elicited by KA or AMPA; also recorded: virtually blocking it | KA-elicited eating ([3]; 7-CK 0.1 nmol): suppressed feeding elicited by KA or AMPA; also recorded: suppressed KA-elicited eating | NMDA-elicited eating ([3]; 7-CK 0.1 nmol): enhanced NMDA-elicited eating | AMPA-elicited eating ([3]; 7-CK 10 nmol): suppressed eating elicited by AMPA | KA-elicited eating ([3]; 7-CK 10 nmol): enhancing eating elicited by KA; also recorded: markedly enhanced the KA-elicited response | NMDA-elicited eating ([3]; 7-CK 10 nmol): blocked NMDA-elicited eating | NMDA-elicited eating ([3]; LH injection before NMDA, satiated rats, dose not stated (high doses)): blocked | eating produced by fasting [10]: effectively suppressed eating produced by fasting

CCCC(CCC)C(=O)O [valproate]
weight gain as monotherapy (seizure patients): associated with weight gain

CNC[C@H](O)c1ccc(O)c(O)c1 [epinephrine]
effect on eating in PFH [8]: feeding-suppressive effects
